# Peptide text beside a SMILES is read from it.
# Molecular target: T1, BK2 -receptor (Rattus norvegicus, UniProt P25023)
# T1 construct: guinea-pig ileum (GPI), rat uterus (RU) and rabbit jugular vein (RJV); from tissue; host or cells: rat uterus
# T1 sequence (P25023 1-396): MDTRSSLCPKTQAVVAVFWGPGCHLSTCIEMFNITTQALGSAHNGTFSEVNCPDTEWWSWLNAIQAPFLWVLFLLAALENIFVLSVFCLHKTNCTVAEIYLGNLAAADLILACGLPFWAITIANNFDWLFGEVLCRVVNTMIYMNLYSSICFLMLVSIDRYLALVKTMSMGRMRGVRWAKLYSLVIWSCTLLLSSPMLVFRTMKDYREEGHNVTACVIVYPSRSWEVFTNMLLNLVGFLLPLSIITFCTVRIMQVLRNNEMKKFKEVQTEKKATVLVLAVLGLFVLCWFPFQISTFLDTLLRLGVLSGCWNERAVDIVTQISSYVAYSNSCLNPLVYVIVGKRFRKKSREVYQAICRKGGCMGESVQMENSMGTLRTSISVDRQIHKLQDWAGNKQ
# Assay: rat uterus (RU) in vitro, antagonism of BK
# Details: against BK
# Protocol: Thus, in vitro studies were performed on standard assay systems, namely, guinea-pig ileum (GPI), rat uterus (RU) and rabbit jugular vein (RJV). […] The potency of each compound was assessed as a pA2 value according to the method of Arunlakshana & Schild, Br. J. Pharmacol. Chemother., 14:48-58 (1959). The pA2 can be defined as the negative logarithm of the molar concentration of the antagonist in the presence of which the potency of the agonist is reduced two-fold, i.e., twice the amount of agonist is required to produce a given response in the presence of, than in the absence of, the antagonist. A high potency of antagonism is indicated by a high pA2 value. i.e., a low concentration of antagonist is effective.
# The percentage recovery (% Rec) was also determined for compounds with respect to each assay.
# With respect to duration of activity, it is noted that after exposure to the highest concentration of antagonist, each tissue was washed extensively and then assessed for recovery from the antagonist effect.
# Potency in the rat uterus assay was assessed as described above and pA2 values determined.
row,SMILES,pA2 rat uterus (BK2)
1,"CC(C)C[C@H](NC(=O)[C@@H]1CCCN1C(=O)[C@H](CO)NC(=O)[C@H](Cc1ccccc1)NC(=O)CNC(=O)[C@@H]1C[C@@H](O)CN1C(=O)[C@@H]1CCCN1C(=O)[C@H](CS)NC(=O)[C@@H](N)CCCCN)C(=O)O [CP-0374, K--C--P--J--G--F--S--P--L] (HELM PEPTIDE1{K.C.P.[Hyp].G.F.S.P.L}$$$$V2.0; N-terminus and C-terminus assumed)",no measurable activity
2,"CC(C)C[C@H](NC(=O)[C@@H](Cc1ccccc1)NC(=O)[C@H](CSC1CC(=O)N(CCCCCCN2C(=O)CC(SC[C@H](NC(=O)[C@@H](Cc3c[nH]c4ccccc34)NC(=O)[C@@H](NC(=O)[C@@H](Cc3c[nH]c4ccccc34)NC(=O)[C@H](Cc3ccc(O)cc3)NC(=O)[C@@H](N)CC(=O)O)C(C)C)C(=O)N[C@@H](CCCNC(=N)N)C(N)=O)C2=O)C1=O)NC(=O)[C@H](Cc1ccccc1)NC(=O)CNC(=O)[C@@H]1C[C@@H](O)CN1C(=O)[C@@H]1CCCN1C(=O)[C@H](CCCNC(=N)N)NC(=O)[C@H](N)CCCNC(=N)N)C(=O)N[C@@H](CCCNC(=N)N)C(=O)O (stereo partly drawn) [CP-0416] (HELM PEPTIDE1{[dR].R.P.[Hyp].G.F.C.[dF].L.R}|PEPTIDE2{D.Y.[dW].V.[dW].C.R.[am]}|CHEM1{[O=C1CC([*:1])C(=O)N1CCCCCCN1C(=O)CC([*:2])C1=O]}$PEPTIDE1,CHEM1,7:R3-1:R1|PEPTIDE2,CHEM1,6:R3-1:R2$$$V2.0)",8.7 ± 0.2
3,"CC(C)C[C@H](NC(=O)[C@@H](Cc1ccccc1)NC(=O)[C@H](CSC1CC(=O)N(CCCCCCN2C(=O)CC(SC[C@H](N)C(=O)N[C@@H](Cc3ccc(O)cc3)C(=O)N[C@H](Cc3c[nH]c4ccccc34)C(=O)N[C@H](C(=O)N[C@H](Cc3c[nH]c4ccccc34)C(=O)N[C@H](Cc3c[nH]c4ccccc34)C(=O)N[C@@H](CCCNC(=N)N)C(N)=O)C(C)C)C2=O)C1=O)NC(=O)[C@H](Cc1ccccc1)NC(=O)CNC(=O)[C@@H]1C[C@@H](O)CN1C(=O)[C@@H]1CCCN1C(=O)[C@H](CCCNC(=N)N)NC(=O)[C@H](N)CCCNC(=N)N)C(=O)N[C@@H](CCCNC(=N)N)C(=O)O (stereo partly drawn) [CP-0411] (HELM PEPTIDE1{[dR].R.P.[Hyp].G.F.C.[dF].L.R}|PEPTIDE2{C.Y.[dW].V.[dW].[dW].R.[am]}|CHEM1{[O=C1CC([*:1])C(=O)N1CCCCCCN1C(=O)CC([*:2])C1=O]}$PEPTIDE1,CHEM1,7:R3-1:R1|PEPTIDE2,CHEM1,1:R3-1:R2$$$V2.0)",7.5 ± 0.1
4,"CC(C)C[C@H](NC(=O)[C@@H](Cc1ccccc1)NC(=O)[C@H](CSC1CC(=O)N(CCCCCCN2C(=O)CC(SC[C@H](NC(=O)[C@@H](NC(=O)[C@@H](Cc3c[nH]c4ccccc34)NC(=O)[C@H](Cc3ccc(O)cc3)NC(=O)[C@@H](N)CC(=O)O)C(C)C)C(=O)N[C@H](Cc3c[nH]c4ccccc34)C(=O)N[C@@H](CCCNC(=N)N)C(N)=O)C2=O)C1=O)NC(=O)[C@H](Cc1ccccc1)NC(=O)CNC(=O)[C@@H]1C[C@@H](O)CN1C(=O)[C@@H]1CCCN1C(=O)[C@H](CCCNC(=N)N)NC(=O)[C@H](N)CCCNC(=N)N)C(=O)N[C@@H](CCCNC(=N)N)C(=O)O (stereo partly drawn) [CP-0415] (HELM PEPTIDE1{[dR].R.P.[Hyp].G.F.C.[dF].L.R}|PEPTIDE2{D.Y.[dW].V.C.[dW].R.[am]}|CHEM1{[O=C1CC([*:1])C(=O)N1CCCCCCN1C(=O)CC([*:2])C1=O]}$PEPTIDE1,CHEM1,7:R3-1:R1|PEPTIDE2,CHEM1,5:R3-1:R2$$$V2.0)",7.8 ± 0.1

# Same assay, conditions: against BK; read-out: pA2 rat uterus (BK2) (converted)
row,SMILES,Kb [nM]
1,"CC(C)C[C@H](NC(=O)[C@@H](Cc1ccccc1)NC(=O)[C@H](CSC1CC(=O)N(CCN2C(=O)CC(SC[C@H](NC(=O)[C@H](Cc3ccccc3)NC(=O)CNC(=O)[C@@H]3C[C@@H](O)CN3C(=O)[C@@H]3CCCN3C(=O)[C@H](CCCNC(=N)N)NC(=O)[C@H](N)CCCNC(=N)N)C(=O)N[C@H](Cc3ccccc3)C(=O)N[C@@H](CC(C)C)C(=O)N[C@@H](CCCNC(=N)N)C(=O)O)C2=O)C1=O)NC(=O)[C@H](Cc1ccccc1)NC(=O)CNC(=O)[C@@H]1C[C@@H](O)CN1C(=O)[C@@H]1CCCN1C(=O)[C@H](CCCNC(=N)N)NC(=O)[C@H](N)CCCNC(=N)N)C(=O)N[C@@H](CCCNC(=N)N)C(=O)O (stereo partly drawn) [CP-0162] (HELM PEPTIDE1{[dR].R.P.[Hyp].G.F.C.[dF].L.R}|PEPTIDE2{[dR].R.P.[Hyp].G.F.C.[dF].L.R}|CHEM1{[O=C1CC([*:1])C(=O)N1CCN1C(=O)CC([*:2])C1=O]}$PEPTIDE1,CHEM1,7:R3-1:R1|PEPTIDE2,CHEM1,7:R3-1:R2$$$V2.0)",3.98

# Same assay, conditions: percentage recovery after washing
row,SMILES,% REC rat uterus [%]
1,"CC(C)C[C@H](NC(=O)[C@@H](Cc1ccccc1)NC(=O)[C@H](CO)NC(=O)[C@H](CSC1CC(=O)N(CCCCCCN2C(=O)CC(SC[C@H](NC(=O)CNC(=O)[C@@H]3C[C@@H](O)CN3C(=O)[C@@H]3CCCN3C(=O)[C@H](CCCNC(=N)N)NC(=O)[C@H](N)CCCNC(=N)N)C(=O)N[C@@H](CO)C(=O)N[C@H](Cc3ccccc3)C(=O)N[C@@H](CC(C)C)C(=O)N[C@@H](CCCNC(=N)N)C(=O)O)C2=O)C1=O)NC(=O)CNC(=O)[C@@H]1C[C@@H](O)CN1C(=O)[C@@H]1CCCN1C(=O)[C@H](CCCNC(=N)N)NC(=O)[C@H](N)CCCNC(=N)N)C(=O)N[C@@H](CCCNC(=N)N)C(=O)O (stereo partly drawn) [CP-0156] (HELM PEPTIDE1{[dR].R.P.[Hyp].G.C.S.[dF].L.R}|PEPTIDE2{[dR].R.P.[Hyp].G.C.S.[dF].L.R}|CHEM1{[O=C1CC([*:1])C(=O)N1CCCCCCN1C(=O)CC([*:2])C1=O]}$PEPTIDE1,CHEM1,6:R3-1:R1|PEPTIDE2,CHEM1,6:R3-1:R2$$$V2.0)",75

# Molecular target: T2, BK1 receptor (Oryctolagus cuniculus, UniProt P48748)
# T2 sequence (P48748 1-352): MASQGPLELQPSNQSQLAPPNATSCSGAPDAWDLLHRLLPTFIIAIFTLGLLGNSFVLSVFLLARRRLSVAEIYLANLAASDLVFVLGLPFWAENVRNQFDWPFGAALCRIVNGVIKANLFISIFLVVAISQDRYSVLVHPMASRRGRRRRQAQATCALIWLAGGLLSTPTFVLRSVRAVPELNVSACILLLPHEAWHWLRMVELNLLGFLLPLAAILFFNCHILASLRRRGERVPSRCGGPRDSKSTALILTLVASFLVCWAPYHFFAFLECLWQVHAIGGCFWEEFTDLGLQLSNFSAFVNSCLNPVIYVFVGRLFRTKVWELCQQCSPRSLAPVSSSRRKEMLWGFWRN
# Assay: rabbit aorta in vitro, reversal of des-Arg^9 -BK contraction
# Design: on rabbit aorta (BK1 -receptor) in vitro; from tissue; host or cells: rabbit aorta
# Details: negative log of molar concentration causing 50% reversal of des-Arg^9 -BK (10^-7 M) contraction
# Protocol: Each antagonist was then added, in a cumulative fashion, on top of the contraction and the negative log of the molar concentration of the antagonist causing a 50% reversal (IC50) of the […] measured.
row,SMILES,BK1 rabbit aorta IC50
1,"CC(C)C[C@H](NC(=O)[C@@H]1CCCN1C(=O)[C@H](CO)NC(=O)[C@H](Cc1ccccc1)NC(=O)CNC(=O)[C@@H]1C[C@@H](O)CN1C(=O)[C@@H]1CCCN1C(=O)[C@H](CS)NC(=O)[C@@H](N)CCCCN)C(=O)O [CP-0374, K--C--P--J--G--F--S--P--L] (HELM PEPTIDE1{K.C.P.[Hyp].G.F.S.P.L}$$$$V2.0; N-terminus and C-terminus assumed)",6.5 ± 0.3
2,"CC(C)C[C@H](NC(=O)[C@@H](Cc1ccccc1)NC(=O)[C@H](CO)NC(=O)[C@H](Cc1ccccc1)NC(=O)CNC(=O)[C@@H]1C[C@@H](O)CN1C(=O)[C@@H]1CCCN1C(=O)[C@H](CCCNC(=N)N)NC(=O)[C@H](N)CCCNC(=N)N)C(=O)O [CP-0253, D R--R--P--J--G--F--S--D F--L] (HELM PEPTIDE1{[dR].R.P.[Hyp].G.F.S.[dF].L}$$$$V2.0; N-terminus and C-terminus assumed)",6.9 ± 0.1
3,"CC(C)C[C@H](NC(=O)[C@@H](Cc1ccccc1)NC(=O)[C@H](CO)NC(=O)[C@H](Cc1ccccc1)NC(=O)CNC(=O)[C@@H]1C[C@@H](O)CN1C(=O)[C@@H]1CCCN1C(=O)[C@H](CS)NC(=O)[C@H](N)CCCNC(=N)N)C(=O)O [CP-0376, D R--C--P--J--G--F--S--D F--L] (HELM PEPTIDE1{[dR].C.P.[Hyp].G.F.S.[dF].L}$$$$V2.0; N-terminus and C-terminus assumed)",4.9 ± 0.3
4,"CC(C)C[C@H](NC(=O)[C@@H](Cc1ccccc1)NC(=O)[C@H](CS)NC(=O)[C@H](Cc1ccccc1)NC(=O)CNC(=O)[C@@H]1C[C@@H](O)CN1C(=O)[C@@H]1CCCN1C(=O)[C@H](CCCNC(=N)N)NC(=O)[C@H](N)CCCNC(=N)N)C(=O)O [CP-0254, D R--R--P--J--G--F--C--D F--L] (HELM PEPTIDE1{[dR].R.P.[Hyp].G.F.C.[dF].L}$$$$V2.0; N-terminus and C-terminus assumed)",6.4 ± 0.1
5,"CC(C)C[C@H](NC(=O)[C@@H]1CCCN1C(=O)[C@H](CO)NC(=O)[C@H](Cc1ccccc1)NC(=O)CNC(=O)[C@@H]1C[C@@H](O)CN1C(=O)[C@@H]1CCCN1C(=O)[C@H](CCCCN)NC(=O)[C@H](N)CCCNC(=N)N)C(=O)O [CP-0388, D R--K--P--J--G--F--S--P--L] (HELM PEPTIDE1{[dR].K.P.[Hyp].G.F.S.P.L}$$$$V2.0; N-terminus and C-terminus assumed)",6.5 ± 0.1
6,"N=C(N)NCCC[C@@H](N)C(=O)N[C@@H](CS)C(=O)N1CCC[C@H]1C(=O)N1C[C@H](O)C[C@H]1C(=O)NCC(=O)N[C@@H](Cc1ccccc1)C(=O)N[C@@H](CO)C(=O)N1Cc2ccccc2C[C@@H]1C(=O)N1[C@H](C(=O)O)C[C@@H]2CCCC[C@@H]21 [CP-0363, D R--C--P--J--G--F--S--D Tic--Oic] (HELM PEPTIDE1{[dR].C.P.[Hyp].G.F.S.[O=C([C@H]1Cc2ccccc2CN1[*:1])[*:2]].[O=C(O)[C@@H]1C[C@@H]2CCCC[C@@H]2N1[*:1]]}$$$$V2.0; N-terminus and C-terminus assumed)",6.2 ± 0.3

# — patent US5635593A (priority 1995, dated 1997)
